pIC50: −log10 of the molar value.
How the values were obtained:
Jurkat cells = experiment: Jurkat cell adhesion system (adhesion to immobilized human fibronectin, PMA-stimulated); type: cell-based; conditions: concentration inhibiting by 50% the PMA-stimulated increase in number of adhered Jurkat cells on human fibronectin
Method: Evaluation of Compounds in Jurkat Cell Adhesion System
<Immobilization of Human Fibronectin in 96-Well Plate>
Human fibronectin (Becton Dickinson Biosciences) was diluted with phosphate-buffered saline (hereinafter abbreviated as PBS; Sigma) to 0.1-0.01 μg/ml, and the diluted solution was added to a 96-well plate (Becton Dickinson) at 50μ/well, and allowed to stand overnight at 4° C. On the following day, the supernatant was removed from the plate, and then PBS containing 1% bovine serum albumin (hereinafter abbreviated as BSA; Sigma) was added thereto at 100 μl/well and incubation was performed at 37° C. for 2 hours in a CO2 incubator (Hirasawa).
The supernatant was removed from each plate and Jurkat cells suspended in RPMI-1640 (Sigma) containing 1 mg/ml BSA were added at 80 μl/well for 2.5×10^5 cells/well. The compound diluted to different concentrations with RPMI-1640 containing 1 mg/ml BSA was immediately added at 10 μl/well, and then 100 nM phorbol myristate acetate (hereinafter abbreviated as PMA; Sigma) in RPMI-1640 containing 1 mg/ml BSA was added at 10 μl/well and the plate was incubated in a CO2 incubator at 37° C. for 45-60 minutes. The supernatant was removed from the plate and each well was washed several times with 100 μl/well of RPMI-1640, after which 50 mM citrate buffer (pH 5.0) containing 3.75 mM p-nitrophenol-N-acetyl-β-D-glucosaminide (Sigma) and 0.25% Triton X-100 (Sigma) were added at 60 μl/well, and the mixture was placed in a CO2 incubator and incubated at 37° C. for 45 minutes. After incubation, 50 mM glycine buffer (pH 10.4) containing 5 mM EDTA was added at 90 μl/well, and the absorbance at 405 nm was measured with an EL340 Automated Microplate Reader (BIO-TEK) to determine the adhered cell count. The concentration of each compound which inhibited the increase in the number of adhered cells by the PMA-stimulation by 50% was recorded as the IC50 (μM).

[1] = tested on: colon-infiltrating neutrophils (myeloperoxidase enzyme activity); experiment: Oxazolone-induced colon neutrophil infiltration model; type: in vivo, Balb/c mice; conditions: Mus musculus, po, 30 mg/kg orally 30 minutes prior to intrarectal oxazolone, colon myeloperoxidase activity 4 hours after, vs oxazolone control group, read-out: Inhibitory rate (%)
Method: Evaluation of Compounds in Oxazolone-Induced Colon Neutrophil Infiltration Model
<Sensitization with Oxazolone>
Five- to six-week-old male Balb/c mice (Charles River Japan) were shaven at the abdomen to an approximately 2 cm square area. A 100% ethanol solution containing 3% 4-ethoxymethylene-2-phenyl-2-oxazolin-5-one (hereinafter referred to as “oxazolone”; Sigma) was applied at 150 μl onto the abdomen of each mouse.
<Preparation of Emulsion Containing Oxazolone>
Distilled water (Otsuka Pharmaceutical) was added in an equivalent volume to 100% peanut oil (Kanto Kagaku) containing 1% oxazolone, and the components were vigorously mixed with a glass syringe (Top Co.), to prepare an emulsion containing 0.5% oxazolone.
<Induction with Oxazolone>
The mice were fasted on the 3rd day after oxazolone sensitization, and were injected with 100 μl of the emulsion containing 0.5% oxazolone prepared in the way described above intrarectally at a site approximately 3 cm from the anus under ether anesthesia on the 4th day.
<Colon-Infiltrating Neutrophil Assay>
Each compound was suspended or dissolved in an aqueous solution containing 0.5% methyl cellulose (Wako), and orally administered at 30 mg/kg 30 minutes prior to the intrarectal injection of oxazolone emulsion. Four hours after the intrarectal injection of oxazolone, mice were sacrificed by cervical dislocation, and colons were extirpated, dissected in the longitudinal direction, washed with physiological saline, and transferred to ice-cooled plastic centrifugation tubes. After adding 1 ml of 50 mM potassium phosphate buffer (hereinafter abbreviated as KPB) (pH 6.0) to the tube, and the tissue were homogenized with PHYSCOTRON (Microtec Nition Co., Ltd.), 2 ml of 50 mM KPB (pH 6.0) was added and the mixture was centrifuged at 3000 rpm, 4° C. for 10 minutes and the supernatant was removed. To the resultant precipitate was added 1 ml of 50 mM KPB (pH 6.0) containing 0.5% hexadecyltrimethyl-ammonium bromide (Sigma), and freeze-thawed 3 to 5 times using liquid nitrogen and hot water, centrifuged at 3000 rpm, 4° C. for 10 minutes to yield a supernatant. The myeloperoxidase enzyme activity in the supernatant was assayed in the following manner. Specifically, to 10 μl of the obtained supernatant was added 200 μl of 50 mM KPB (pH6.0) containing 0.017% o-dianisidine (Sigma) and 0.0005% hydrogen peroxide (Wako), incubated at 37° C., and the change in absorbance at 450 nm was continuously measured for 1 minute using an EL340 Automated Microplate Reader (BIO-TEK) in kinetic mode. The units were the rate of change in absorbance per minute (mO.D./min.). With regard to the effect of each compound, the inhibitory rate (%) with respect to the oxazolone control group, i.e. the oxazolone-injected/compound-free group, was shown in the table 3.

[2] = tested on: human peripheral blood neutrophils; experiment: Human peripheral blood neutrophil adhesion system (adhesion to immobilized HUVEC, PMA-stimulated); type: cell-based; conditions: concentration inhibiting by 50% the PMA-stimulated increase in number of adhered BCECF-AM labeled neutrophils on HUVEC immobilized plate
Method: Evaluation of Compounds in Human Peripheral Blood Neutrophil Adhesion System
<Preparation of Human Peripheral Blood Neutrophils>
To a plastic centrifugation tube containing 100 units of heparin sodium (Shimizu Pharmaceutical) was added 25 ml of fresh blood sampled from a healthy human. After adding and mixing therewith 8 ml of physiological saline (Otsuka Pharmaceutical) containing 6% Dextran (Nacalai), the mixture was allowed to stand room temperature for 45 minutes for sedimentation of the erythrocytes. The resultant supernatant was transferred to another plastic centrifugation tube and combined with an equivalent volume of phosphate-buffered saline (hereinafter abbreviated as PBS; Sigma), and then centrifuged at 1600 rpm for 7 minutes at room temperature. The obtained hematocyte fraction was suspended in 4 ml of PBS, and the suspension was superposed on 4 ml of Ficoll-Paque™ PLUS (Amersham Biosciences). The resultant bilayer liquid was centrifuged at 2000 rpm for 30 minutes at room temperature, after which the supernatant was removed and the precipitate was suspended in 10 ml of PBS and centrifuged at 1200 rpm for 7 minutes, and the supernatant was removed. The resulting precipitate was suspended in 0.5 ml of PBS again, and then 10 ml of distilled water (Otsuka Pharmaceutical) was added, 0.5 ml of an aqueous solution containing 3 M NaCl was immediately added to restore isotonicity, the mixture was centrifuged at 1200 rpm for 7 minutes, and the obtained precipitate was suspended in PBS containing 1 mg/ml bovine serum albumin (hereinafter abbreviated as BSA; Sigma) again and stored in ice until being used for the experiment.
<Fluorescent Labeling of Human Peripheral Blood Neutrophils>
The obtained neutrophils were suspended in PBS containing 1 mg/ml BSA at 2×10^7 cells/ml. BCECF-AM (Dojin) was added to a final concentration of 5 μM, and the mixture was incubated at 37° C. for 45 minutes. It was then rinsed twice with PBS containing 1 mg/ml BSA by centrifugation, suspended again in PBS containing 1 mg/ml BSA at 5×10^7 cells/ml, and stored in ice until use.
<Preparation of HUVEC Immobilized Plate>
Human umbilical vein endothelial cells (hereinafter abbreviated as HUVEC) were suspended in MCDB131 medium (Chlorella Industries) containing 10% fetal calf serum and 30 μg/ml endothelial cell growth supplement (Becton Dickinson Bioscience). The suspension was added at 7.5×10^3 cells/well to a 96-well plate (Iwaki) immobilized with type I collagen, and cultured for 3 days in a CO2 incubator (Hirasawa). Upon confirming confluency of the cells, the supernatant was discarded, the plate was rinsed twice with PBS, and then PBS containing 0.1% glutaraldehyde (Kanto Kagaku) was added at 100 μl/well and the HUVECs were immobilized for 5 minutes. The supernatant was discarded and the plate was washed twice with PBS, and then PBS was added at 100 μl/well and the mixture was stored at 4° C. until use.
To 6.5 ml of RPMI-1640 medium (Sigma) containing 1 mg/ml of BSA were added 0.5 ml of a suspension of BCECF-AM labeled neutrophils at 5×10^7/ml stored in ice, which was mixed, and the mixture was added at 80 μl/well to a HUVEC immobilized plate. […] The supernatant was removed from the plate, which was then washed several times with RPMI-1640 at 100 μl/well, and then PBS containing 0.1% NP-40 (Calbiochem) was added thereto at 100 μl/well and the fluorescent intensity was measured with an ARVO™SX 1420 multi label counter (Wallac) to determine the number of adhered cells. […]

SMILES | pIC50 (Jurkat cells) | inhibition in vivo at 30 mg/kg [1] | pIC50 [2]
CCCCN1CCN(c2ccc(N3CCC(OC)CC3)cc2C2=CCC(C(C)(C)C)CC2)CC1.Cl (racemic) [Example 7, 1-Butyl-4-[2-(4-t-butylcyclohex-1-enyl)-4-(4-methoxypiperidin-1-yl)phenyl]piperazine hydrochloride] | 5.60 | 37% | 5.01
CCCCN1CCN(c2ccccc2C2CCCCC2)CC1.Cl [Example 14, 1-Butyl-4-(2-cyclohexylphenyl)piperazine hydrochloride] | 5.31 | 64% | 4.71
CCCCN1CCN(c2ccccc2C2CC(C)(C)CC(C)(C)C2)CC1.Cl [Example 8, 1-Butyl-4-[2-(3,3,5,5-tetramethylcyclohexyl)phenyl]piperazine hydrochloride] | 5.66 | 22% | 4.65

Reference: patent publication US7410971B2, “1,2-di(cyclic)substituted benzene compounds” (Eisai R&D Management Co., Ltd., priority 2003, dated 2008)
